{
  "source": "paper PMC7341468",
  "about": "(BMC Pharmacology & Toxicology, 2020)",
  "key": {"[1]": {"test_system": "methicillin-resistant Staphylococcus aureus (MRSA)", "procedure": "This retrospective study was conducted between June 2015 and May 2019, and was approved by the Institutional Review Board of Hyogo College of Medicine (No. 3266). […] The analysis of Cmin and the safety population included all eligible patients."}, "MRSA isolates": {"test_system": "MRSA isolates", "conditions": "all MRSA isolates; microdilution, CLSI M02 and M07"}},
  "data": [
    {"substance": "teicoplanin", "values": [
      {"measurement": "Clinical success at the end of the therapy", "setting": "[1]; all patients of the clinical efficacy population, 55 of 76 patients", "value": 72.4, "unit": "%"},
      {"measurement": "Crude odds ratio (95% CI) for early clinical response", "setting": "[1]; factor: Enhanced high dose loading regimen, univariate analysis", "value": "0.90 (0.31–2.63)"},
      {"measurement": "Adjusted odds ratio (95%CI) for early clinical response", "setting": "[1]; human, in vivo", "value": "3.95 (1.25–12.53)"},
      {"measurement": "Teicoplanin MICs", "setting": "MRSA isolates", "value": "≤ 2", "unit": "µg/mL"}
    ]}
  ]
}
